Assay [1] concerns the target T1, Myotonin-protein kinase (Homo sapiens) (UniProt Q09013).
T1 sequence (whole entry): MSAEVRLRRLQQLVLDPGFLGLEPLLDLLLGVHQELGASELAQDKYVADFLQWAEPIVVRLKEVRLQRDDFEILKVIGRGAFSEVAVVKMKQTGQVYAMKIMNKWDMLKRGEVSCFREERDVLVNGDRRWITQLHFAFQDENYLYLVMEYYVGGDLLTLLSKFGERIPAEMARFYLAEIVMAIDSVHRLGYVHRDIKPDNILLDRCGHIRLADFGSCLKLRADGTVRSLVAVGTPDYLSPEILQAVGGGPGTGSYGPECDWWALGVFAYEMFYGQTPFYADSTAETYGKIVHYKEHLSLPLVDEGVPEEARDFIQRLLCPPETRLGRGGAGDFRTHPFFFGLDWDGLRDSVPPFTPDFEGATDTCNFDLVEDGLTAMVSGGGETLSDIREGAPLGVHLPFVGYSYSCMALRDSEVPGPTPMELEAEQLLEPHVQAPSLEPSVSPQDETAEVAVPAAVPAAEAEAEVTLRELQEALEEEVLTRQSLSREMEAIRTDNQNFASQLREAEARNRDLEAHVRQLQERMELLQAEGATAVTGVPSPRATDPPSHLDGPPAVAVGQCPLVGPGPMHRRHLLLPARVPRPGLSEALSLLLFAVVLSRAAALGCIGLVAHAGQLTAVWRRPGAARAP
The assay can be described thus: Selectivity interaction (LanthaScreen Eu Kinase Binding Assay) EUB0001632a DMPK. Conditions: at 10 µM.

Assay [2] deals with Proto-oncogene tyrosine-protein kinase receptor Ret (Homo sapiens), P07949 [V804M]. The assay can be described thus: Selectivity interaction (LanthaScreen Eu Kinase Binding Assay) EUB0001632a RET. The settings on record: at 10 µM. For orientation: TR-FRET usually uses a lanthanide donor and a delayed reading to cut background.
Assay [3] addresses Ephrin type-A receptor 5 (Homo sapiens) (UniProt P54756). The assay can be described thus: Selectivity interaction (Kinase panel (Z-LYTE Assay)) EUB0001632a EPHA5. Conditions: at 10 µM.
Assay [4] addresses Ribosomal protein S6 kinase beta-1 (Homo sapiens, UniProt P23443). Description: Selectivity interaction (Kinase panel (KiNativ target engagement assay in Jurkat cells)) EUB0001635a RPS6KB1. It counts as cell-based. Conditions: at 1 µM.
Assay [5] addresses T2, TGF-beta receptor type-1 (Homo sapiens) (UniProt P36897).
T2 sequence (whole entry): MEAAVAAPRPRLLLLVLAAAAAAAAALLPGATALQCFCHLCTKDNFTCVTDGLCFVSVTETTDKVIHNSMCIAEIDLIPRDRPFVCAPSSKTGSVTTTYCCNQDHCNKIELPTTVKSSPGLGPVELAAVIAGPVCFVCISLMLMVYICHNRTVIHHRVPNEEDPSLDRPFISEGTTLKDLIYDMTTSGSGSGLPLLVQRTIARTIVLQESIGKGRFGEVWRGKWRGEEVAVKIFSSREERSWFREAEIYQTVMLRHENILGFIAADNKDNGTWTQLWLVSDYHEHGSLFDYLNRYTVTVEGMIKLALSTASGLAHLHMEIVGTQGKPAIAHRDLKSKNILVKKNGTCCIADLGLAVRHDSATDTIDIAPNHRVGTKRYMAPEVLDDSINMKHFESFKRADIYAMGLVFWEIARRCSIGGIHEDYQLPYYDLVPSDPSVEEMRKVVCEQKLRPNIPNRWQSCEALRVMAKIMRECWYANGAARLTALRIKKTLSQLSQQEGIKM
Description: Selectivity interaction (KinomeScan (DiscoverX)) EUB0000607a TGFBR1. Conditions: at 10 µM.

Assay [6] concerns the target BMP-2-inducible protein kinase (Homo sapiens) (UniProt Q9NSY1). The assay can be described thus: Selectivity interaction (KinomeScan (DiscoverX)) EUB0000655a BMP2K. Conditions: at 10 µM.
Assay [7] addresses Protein kinase C theta type (Homo sapiens, UniProt Q04759). The assay can be described thus: Selectivity interaction (KinomeScan (DiscoverX)) EUB0000311b PRKCQ. The settings on record: at 1 µM.
Assay [8] has as its target Mitogen-activated protein kinase kinase kinase kinase 1 (Homo sapiens) (UniProt Q92918). The assay can be described thus: Selectivity interaction (KinomeScan (DiscoverX)) EUB0001619a MAP4K1. The settings on record: at 1 µM.
Assay [9] concerns the target Protein-tyrosine kinase 2-beta (Homo sapiens) (UniProt Q14289). Description: Selectivity interaction (ActivX KiNativ screen (ex vivo kinase selectivity in human PBMCs)) EUB0001619a PTK2B. Format: cell-based. Conditions: PBMC, at 1 µM.
In another assay the target is Misshapen-like kinase 1 (Homo sapiens, UniProt Q8N4C8). Description: Selectivity interaction (Kinase panel (literature)) EUB0001199aCl MINK1. Conditions: at 1 µM.
A further assay has as its target B2 bradykinin receptor (Homo sapiens, UniProt P30411). The assay can be described thus: Selectivity interaction (Bradykinin 2 receptor binding assay, human recombinant ) EUB0000877a BDKRB2.
Assay [10] has as its target Serine/threonine-protein kinase SMG1 (Homo sapiens) (UniProt Q96Q15). The assay can be described thus: Selectivity interaction (ActivX KiNativ screen (kinase selectivity in THP-1 cell lysates)) EUB0000639a SMG1. Format: subcellular. Conditions: lysate, at 0.04 µM.
Assay [11] deals with Serine/threonine-protein kinase B-raf (Homo sapiens), P15056 [V600E]. The settings on record: at 10 µM.
For assay [12], the target named is Calcium/calmodulin-dependent protein kinase type 1 (Homo sapiens) (UniProt Q14012). The settings on record: at 10 µM.
Assay [13] has as its target Insulin receptor-related protein (Homo sapiens) (UniProt P14616). The assay can be described thus: Selectivity interaction (KinomeScan (DiscoverX)) EUB0000695a INSRR. The settings on record: at 100 nM.

One may read the IC50 as the concentration at which inhibition is half-maximal.

Ribosomal protein S6 kinase beta-1, sequence (P23443 whole entry, looked up): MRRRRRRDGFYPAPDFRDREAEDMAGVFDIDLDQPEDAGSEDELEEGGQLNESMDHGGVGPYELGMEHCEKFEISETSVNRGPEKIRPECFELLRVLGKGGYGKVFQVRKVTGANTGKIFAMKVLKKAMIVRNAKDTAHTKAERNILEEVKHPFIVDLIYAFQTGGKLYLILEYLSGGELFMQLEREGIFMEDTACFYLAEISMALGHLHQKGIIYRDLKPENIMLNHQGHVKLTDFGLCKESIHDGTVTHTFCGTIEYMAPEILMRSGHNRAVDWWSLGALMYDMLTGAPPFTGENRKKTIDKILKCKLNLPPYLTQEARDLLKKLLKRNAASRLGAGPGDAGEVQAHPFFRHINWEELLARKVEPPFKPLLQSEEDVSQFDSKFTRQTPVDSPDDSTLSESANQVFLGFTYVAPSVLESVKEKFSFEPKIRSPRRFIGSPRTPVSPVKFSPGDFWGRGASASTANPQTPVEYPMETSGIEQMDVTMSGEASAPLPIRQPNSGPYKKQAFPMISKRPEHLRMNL
Calcium/calmodulin-dependent protein kinase type 1 (Homo sapiens), sequence (Q14012 whole entry, looked up): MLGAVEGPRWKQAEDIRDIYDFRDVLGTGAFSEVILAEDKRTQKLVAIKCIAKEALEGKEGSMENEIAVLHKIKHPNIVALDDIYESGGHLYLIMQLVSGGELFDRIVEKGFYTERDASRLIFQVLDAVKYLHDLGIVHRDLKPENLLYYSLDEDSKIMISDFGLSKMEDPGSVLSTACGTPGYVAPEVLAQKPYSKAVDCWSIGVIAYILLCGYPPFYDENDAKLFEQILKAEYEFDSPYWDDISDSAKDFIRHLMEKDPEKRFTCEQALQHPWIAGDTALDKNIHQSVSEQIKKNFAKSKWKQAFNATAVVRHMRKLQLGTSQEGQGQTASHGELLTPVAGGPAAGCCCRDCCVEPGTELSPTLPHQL
B2 bradykinin receptor, sequence (P30411 whole entry): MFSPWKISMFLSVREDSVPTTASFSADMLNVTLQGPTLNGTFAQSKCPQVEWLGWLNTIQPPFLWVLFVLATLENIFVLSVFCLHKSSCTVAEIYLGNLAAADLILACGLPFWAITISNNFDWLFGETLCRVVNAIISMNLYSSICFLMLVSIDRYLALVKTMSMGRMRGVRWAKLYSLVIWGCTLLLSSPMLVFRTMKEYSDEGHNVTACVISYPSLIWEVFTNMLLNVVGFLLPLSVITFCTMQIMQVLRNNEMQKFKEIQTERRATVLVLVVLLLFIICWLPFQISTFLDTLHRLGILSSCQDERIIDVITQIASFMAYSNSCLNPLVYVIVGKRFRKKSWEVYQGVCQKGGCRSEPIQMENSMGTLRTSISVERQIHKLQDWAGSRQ
Serine/threonine-protein kinase SMG1 (Homo sapiens), sequence (Q96Q15 whole entry): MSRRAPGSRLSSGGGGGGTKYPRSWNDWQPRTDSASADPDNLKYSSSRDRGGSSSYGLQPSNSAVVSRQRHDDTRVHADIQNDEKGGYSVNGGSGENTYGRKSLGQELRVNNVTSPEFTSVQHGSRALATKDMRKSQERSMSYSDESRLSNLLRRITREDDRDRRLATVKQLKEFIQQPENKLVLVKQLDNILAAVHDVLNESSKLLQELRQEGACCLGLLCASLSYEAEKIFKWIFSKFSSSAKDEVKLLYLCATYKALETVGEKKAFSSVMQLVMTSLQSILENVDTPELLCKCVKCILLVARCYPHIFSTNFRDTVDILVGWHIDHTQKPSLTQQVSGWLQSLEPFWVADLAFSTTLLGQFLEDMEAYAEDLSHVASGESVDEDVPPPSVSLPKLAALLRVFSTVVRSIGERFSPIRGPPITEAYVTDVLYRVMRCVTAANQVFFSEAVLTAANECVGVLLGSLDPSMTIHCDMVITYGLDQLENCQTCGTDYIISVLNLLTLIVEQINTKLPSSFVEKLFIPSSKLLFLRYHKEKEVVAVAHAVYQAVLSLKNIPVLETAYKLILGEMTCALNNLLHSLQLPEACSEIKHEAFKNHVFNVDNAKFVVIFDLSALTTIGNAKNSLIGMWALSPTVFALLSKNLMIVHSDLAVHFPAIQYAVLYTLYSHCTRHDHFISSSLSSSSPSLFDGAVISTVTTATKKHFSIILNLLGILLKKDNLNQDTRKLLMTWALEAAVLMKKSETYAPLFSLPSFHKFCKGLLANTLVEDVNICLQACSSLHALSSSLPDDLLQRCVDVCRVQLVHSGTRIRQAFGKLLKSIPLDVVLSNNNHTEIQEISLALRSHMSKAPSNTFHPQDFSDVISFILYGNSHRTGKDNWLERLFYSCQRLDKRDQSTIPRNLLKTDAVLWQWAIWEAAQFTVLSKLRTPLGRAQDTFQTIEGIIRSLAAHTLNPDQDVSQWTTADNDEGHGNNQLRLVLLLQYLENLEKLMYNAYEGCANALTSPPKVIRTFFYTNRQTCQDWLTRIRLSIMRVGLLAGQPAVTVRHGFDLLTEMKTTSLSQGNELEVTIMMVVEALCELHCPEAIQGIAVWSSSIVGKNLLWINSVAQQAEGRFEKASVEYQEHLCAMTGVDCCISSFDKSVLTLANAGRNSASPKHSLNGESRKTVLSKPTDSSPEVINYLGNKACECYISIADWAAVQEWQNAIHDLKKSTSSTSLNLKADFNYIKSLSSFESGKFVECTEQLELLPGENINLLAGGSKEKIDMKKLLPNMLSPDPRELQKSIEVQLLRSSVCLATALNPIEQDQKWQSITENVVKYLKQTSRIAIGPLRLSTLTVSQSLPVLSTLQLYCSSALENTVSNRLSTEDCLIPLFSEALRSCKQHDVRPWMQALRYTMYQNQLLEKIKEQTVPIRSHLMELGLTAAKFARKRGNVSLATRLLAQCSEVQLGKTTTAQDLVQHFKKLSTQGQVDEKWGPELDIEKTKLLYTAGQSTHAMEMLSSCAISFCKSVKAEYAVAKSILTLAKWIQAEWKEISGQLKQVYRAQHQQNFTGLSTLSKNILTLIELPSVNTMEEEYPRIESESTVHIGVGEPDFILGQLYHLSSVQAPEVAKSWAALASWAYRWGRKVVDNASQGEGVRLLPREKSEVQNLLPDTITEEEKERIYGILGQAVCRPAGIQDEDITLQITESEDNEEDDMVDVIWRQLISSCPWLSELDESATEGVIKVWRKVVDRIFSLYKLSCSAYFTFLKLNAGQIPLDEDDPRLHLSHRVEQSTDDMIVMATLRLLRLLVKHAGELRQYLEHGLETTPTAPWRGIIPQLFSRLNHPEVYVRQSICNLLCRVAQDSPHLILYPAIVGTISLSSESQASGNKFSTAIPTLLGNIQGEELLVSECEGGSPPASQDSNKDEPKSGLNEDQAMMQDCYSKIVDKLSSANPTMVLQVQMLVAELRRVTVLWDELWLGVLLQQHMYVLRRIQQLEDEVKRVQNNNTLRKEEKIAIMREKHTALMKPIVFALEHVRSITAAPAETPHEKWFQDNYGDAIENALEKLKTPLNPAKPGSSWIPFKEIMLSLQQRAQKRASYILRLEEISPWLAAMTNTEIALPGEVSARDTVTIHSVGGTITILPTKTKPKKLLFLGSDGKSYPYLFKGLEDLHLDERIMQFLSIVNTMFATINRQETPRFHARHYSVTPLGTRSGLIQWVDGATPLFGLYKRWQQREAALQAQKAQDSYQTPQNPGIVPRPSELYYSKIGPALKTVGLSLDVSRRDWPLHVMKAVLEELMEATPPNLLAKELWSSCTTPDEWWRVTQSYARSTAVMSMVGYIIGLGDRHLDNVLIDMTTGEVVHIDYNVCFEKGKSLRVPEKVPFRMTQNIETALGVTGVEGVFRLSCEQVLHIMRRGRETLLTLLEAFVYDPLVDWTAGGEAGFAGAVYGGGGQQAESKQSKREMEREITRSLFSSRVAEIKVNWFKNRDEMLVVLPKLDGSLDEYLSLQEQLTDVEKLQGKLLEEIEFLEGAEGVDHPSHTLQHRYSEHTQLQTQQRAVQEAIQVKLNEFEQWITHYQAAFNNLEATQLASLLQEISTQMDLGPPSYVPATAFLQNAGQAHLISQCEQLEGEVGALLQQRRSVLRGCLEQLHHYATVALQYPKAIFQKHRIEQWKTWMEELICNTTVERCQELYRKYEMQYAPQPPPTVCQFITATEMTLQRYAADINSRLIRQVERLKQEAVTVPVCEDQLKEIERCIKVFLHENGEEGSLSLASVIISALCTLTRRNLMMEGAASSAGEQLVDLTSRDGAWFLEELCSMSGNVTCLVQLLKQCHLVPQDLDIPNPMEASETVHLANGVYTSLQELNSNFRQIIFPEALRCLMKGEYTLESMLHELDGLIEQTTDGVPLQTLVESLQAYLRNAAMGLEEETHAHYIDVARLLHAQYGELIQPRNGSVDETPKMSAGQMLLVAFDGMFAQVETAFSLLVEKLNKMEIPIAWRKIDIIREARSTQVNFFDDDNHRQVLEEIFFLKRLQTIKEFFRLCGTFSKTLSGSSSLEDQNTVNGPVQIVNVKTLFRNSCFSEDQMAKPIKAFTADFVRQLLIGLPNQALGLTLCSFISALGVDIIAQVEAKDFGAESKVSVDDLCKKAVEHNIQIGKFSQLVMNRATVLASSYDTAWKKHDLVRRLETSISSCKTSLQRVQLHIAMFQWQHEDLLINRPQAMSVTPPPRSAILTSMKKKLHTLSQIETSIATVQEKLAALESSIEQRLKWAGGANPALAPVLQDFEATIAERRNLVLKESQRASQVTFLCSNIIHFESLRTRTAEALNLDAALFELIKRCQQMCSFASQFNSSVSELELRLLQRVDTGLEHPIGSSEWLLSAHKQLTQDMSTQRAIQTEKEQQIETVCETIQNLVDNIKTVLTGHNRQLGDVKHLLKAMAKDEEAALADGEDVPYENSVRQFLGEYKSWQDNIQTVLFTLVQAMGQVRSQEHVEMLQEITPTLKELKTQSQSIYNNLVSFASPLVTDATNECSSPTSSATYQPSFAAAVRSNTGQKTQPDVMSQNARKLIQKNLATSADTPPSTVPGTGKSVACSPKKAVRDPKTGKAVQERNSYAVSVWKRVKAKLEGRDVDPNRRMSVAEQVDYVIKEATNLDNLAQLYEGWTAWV

Turning to `Cn1cc(-n2cnc3c(NCc4nc5cc(Cl)c(Cl)cc5[nH]4)nc(N4CCOCC4)nc32)cn1`, the % of inhibition in assay [1] is -4.81%; in [2], -50.1%. The same compound yielded a % of control in assay [3] of 6.77%.

Consider `C=CC(=O)Nc1ccc(C(=O)Nc2[nH]nc3c2CN(C(=O)N[C@H](CN(C)C)c2ccccc2)C3(C)C)cc1`, for which the % of engagement in assay [4] (Selectivity number of off-targets 0.0, Selectivity number of targets 233.0, Source Knowledge https://www.sciencedirect.com/science/article/pii/S2451945619300674?via%3Dihub) is 7.5%; in assay [4], -9.4%.

In [5], `CNC(=O)Nc1ccc(-c2nc(N3CC4CCC(C3)O4)c3cnn(C4CCC5(CC4)OCCO5)c3n2)cc1` showed a % of control of 100%.

`CN(C)CCOc1ccc(-c2nc(-c3ccncc3)c(-c3ccc4c(c3)CC/C4=N\O)[nH]2)cc1`: in assay [6], the % of control amounted to 82%.

As to `CCc1ccccc1C(=O)Nc1n[nH]c2c(C)c(F)c(C3C(C#N)=C(C)N(C)C(C)=C3C#N)cc12` [BAY-3827], the % of control in [7] was determined as 15%.

In assay [8], `N#Cc1cccc(-c2c[nH]c3ncnc(N4CCOCC4)c23)c1` registered a % of control of 79%. In addition, the % of inhibition in assay [9] came out at 3%.

For `CN1Cc2nccc(-c3cn(C)nc3-c3ccc(F)cc3)c2C1=O`, the % of inhibition at Misshapen-like kinase 1 amounted to 42%.

With `CCC(=O)N1CC[C@H](Nc2ncnc3c2CN(c2cnc(OC)c(C(F)(F)F)c2)CC3)C1` [LENIOLISIB], the IC50 on B2 bradykinin receptor is more than 30 µM.

In the case of `CC[C@@H]1[C@H](F)C(=O)N[C@@H]1COc1nccc2cc(C(N)=O)c(OC)cc12` [ZIMLOVISERTIB], in assay [10], the % of inhibition stood at 4.1%.

As to `CCN(CC)CCCCNc1ncc2cc(-c3cc(OC)cc(OC)c3)c(NC(=O)NC(C)(C)C)nc2n1`, the % of control in [11] and in assay [12] was 100% each time.

As for `Cc1cc(F)c(C(=O)Nc2cccc(-c3nncn3C(C)C)n2)cc1-n1cnc(C2CC2)c1`, the % of control in [13] was determined as 88%.
